Source: US6525066B2, “4-oxoquinolizine antimicrobial having 2-pyridone skeleton as partial structure” (SATO Pharmaceutical Co., Ltd., priority 1999, dated 2003)
In brackets after ≈: the same amount, converted by molar mass.

Tests used:
Format in all cases: cell-based
[1] = tested on: Escherichia coli IFO 12734; experiment: In vitro antibacterial activity, agar plate dilution method (MIC); conditions: for MIC: IFO12734, read-out: Antibacterial spectrum MIC
Procedure: (§1) The in vitro antibacterial activity of the present compound (Example 2, 4, 6, 8, 10, 12, 14, 16 and 18) was tested by the standard method of Japan Chemical Therapy Institute using agar plate dilution method which is described in CHEMOTHERAPY Vol.29, […], 1981. For an anaerobic bacteria, it was tested by the method described in CHEMOTHERAPY Vol. 27, 559-590, 1979. The minimum concentration at which the growth of a bacteria could be inhibited by the present compound was decided as MIC (μg/ml).

[2] = tested on: Pseudomonas aeruginosa CSJ 1853; experiment: as above; conditions: for MIC: CSJ1853, read-out: Antibacterial spectrum MIC
Procedure: as §1

[3] = tested on: Streptococcus Pneumoniae IID553; experiment: as above; conditions: for MIC: read-out: Antibacterial spectrum MIC
Procedure: as §1

[4] = tested on: Streptococcus aureus Clin-211; experiment: as above; conditions: for MIC: CLIN211, read-out: Antibacterial spectrum MIC
Procedure: as §1

[5] = tested on: Streptococcus aureus JCM2874; experiment: as above; conditions: for MIC: read-out: Antibacterial spectrum MIC
Procedure: as §1

[6] = tested on: Bacteroides fragilis GAI0675; experiment: In vitro antibacterial activity against anaerobic bacteria (MIC); conditions: Bacteroides fragilis GAI0675 (Table 2: Bacteroides GMI0675), anaerobic bacteria method; for MIC: read-out: Antibacterial spectrum MIC
Procedure: as §1

In the case of `COc1cc(-c2ccn3c(=O)c(C(=O)O)cc(C4CC4)c3c2C)cc2c1CNC2` [Example 18, 1-cyclopropyl-9-methyl-8-(4-methoxy-isoindoline-6-yl)-4-oxo-4H-quinolizine-3-carboxylic acid], the MIC [1] is reported as 0.125 µg/mL (≈ 0.32 µM), the MIC [2] is reported as 2 µg/mL (≈ 5.12 µM) and the MIC [3] is reported as 0.125 µg/mL (≈ 0.32 µM). For the same molecule, the MIC [4] was 0.5 µg/mL (≈ 1.28 µM), the MIC [5] was 0.031 µg/mL (≈ 0.0794 µM) and the MIC [6] was 0.063 µg/mL (≈ 0.161 µM).
In the case of `COc1c(-c2ccc3c(c2)CNC3C)ccn2c(=O)c(C(=O)O)cc(C3CC3)c12` (stereo not drawn) [Example 4, 1-cyclopropyl-9-methoxy-8-(1-methylisoindoline-5-yl)-4-oxo-4H-quinolizine-3-carboxylic acid], the MIC [1] is reported as 0.125 µg/mL (≈ 0.32 µM), the MIC [2] is reported as 1 µg/mL (≈ 2.56 µM) and the MIC [3] is reported as 0.25 µg/mL (≈ 0.64 µM). For the same molecule, the MIC [4] was 1 µg/mL (≈ 2.56 µM), the MIC [5] was 0.063 µg/mL (≈ 0.161 µM) and the MIC [6] was 0.25 µg/mL (≈ 0.64 µM).
`COc1cc(-c2ccn3c(=O)c(C(=O)O)cc(C4CC4)c3c2OC)cc2c1CNC2` [Example 16, 1-cyclopropyl-9-methoxy-8-(4-methoxyisoindoline-6-yl)-4-oxo-4H-quinolizine-3-carboxylic acid] showed an MIC [1] of 0.5 µg/mL (≈ 1.23 µM), an MIC [2] of 8 µg/mL (≈ 19.7 µM) and an MIC [3] of 0.5 µg/mL (≈ 1.23 µM). It also gave an MIC [4] of 2 µg/mL (≈ 4.92 µM), an MIC [5] of 0.125 µg/mL (≈ 0.308 µM) and an MIC [6] of 0.25 µg/mL (≈ 0.615 µM).
`CC1NCc2cc(-c3ccn4c(=O)c(C(=O)O)cc(C5CC5)c4c3OC(F)F)ccc21` (stereo not drawn) [Example 10, 1-cyclopropyl-9-difluoromethoxy-8-((+)-1-methylisoindoline-5-yl)-4-oxo-4H-quinolizine-3-carboxylic acid] was tested, and the MIC [1] was 0.125 µg/mL (≈ 0.293 µM), the MIC [2] was 4 µg/mL (≈ 9.38 µM) and the MIC [3] was 0.25 µg/mL (≈ 0.586 µM). It also gave an MIC [4] of 1 µg/mL (≈ 2.35 µM), an MIC [5] of 0.063 µg/mL (≈ 0.148 µM) and an MIC [6] of 0.5 µg/mL (≈ 1.17 µM).
`COc1c(-c2ccc3c(c2)CNC3)ccn2c(=O)c(C(=O)O)cc(C3CC3)c12` [Example 8, 1-cyclopropyl-9-methoxy-8-(isoindoline-5-yl)-4-oxo-4H-quinolizine-3-carboxylic acid] gave an MIC [1] of 0.063 µg/mL (≈ 0.167 µM), an MIC [2] of 1 µg/mL (≈ 2.66 µM) and an MIC [3] of 0.25 µg/mL (≈ 0.664 µM). For the same molecule, the MIC [4] was 0.5 µg/mL (≈ 1.33 µM), the MIC [5] was 0.063 µg/mL (≈ 0.167 µM) and the MIC [6] was 0.25 µg/mL (≈ 0.664 µM).
Work on `Cc1c(-c2ccc3c(c2)CNC3)ccn2c(=O)c(C(=O)O)cc(C3CC3)c12` [Example 6, 1-cyclopropyl-9-methyl-8-(isoindoline-5-yl)-4-oxo-4H-quinolizine-3-carboxylic acid] yielded an MIC [1] of 0.016 µg/mL (≈ 0.0444 µM), an MIC [2] of 0.25 µg/mL (≈ 0.694 µM) and an MIC [3] of 0.031 µg/mL (≈ 0.086 µM). It also gave an MIC [4] of 0.125 µg/mL (≈ 0.347 µM), an MIC [5] of 0.008 µg/mL (≈ 0.0222 µM) and an MIC [6] of 0.031 µg/mL (≈ 0.086 µM).
With `O=C(O)c1cc(C2CC2)c2c(OC(F)F)c(-c3ccc4c(c3)CNC4)ccn2c1=O` [Example 12, 1-cyclopropyl-9-difloromethoxy-8-(isoindoline-5-yl)-4-oxo-4H-quinolizine-3-carboxylic acid] the “Antibacterial spectrum MIC” value [1] was 0.125 µg/mL, the “Antibacterial spectrum MIC” value [2] was 4 µg/mL and the “Antibacterial spectrum MIC” value [3] was 0.25 µg/mL. For the same molecule, the “Antibacterial spectrum MIC” value [4] was 1 µg/mL, the “Antibacterial spectrum MIC” value [5] was 0.031 µg/mL and the “Antibacterial spectrum MIC” value [6] was 0.25 µg/mL.
`Cc1c(-c2ccc3c(c2)CNC3C)ccn2c(=O)c(C(=O)O)cc(C3CC3)c12` (stereo not drawn) [Example 2, 1-cyclopropyl-9-methyl-8-(1-methylisoindoline-5-yl)-4-oxo-4H-quinolizine-3-carboxylic acid] gave an MIC [1] of 0.031 µg/mL (≈ 0.0828 µM), an MIC [2] of 0.25 µg/mL (≈ 0.668 µM) and an MIC [3] of 0.063 µg/mL (≈ 0.168 µM). For the same molecule, the MIC [4] was 0.25 µg/mL (≈ 0.668 µM), the MIC [5] was 0.008 µg/mL (≈ 0.0214 µM) and the MIC [6] was 0.031 µg/mL (≈ 0.0828 µM).
Molecule `Cc1c(-c2cc(F)c3c(c2)CNC3)ccn2c(=O)c(C(=O)O)cc(C3CC3)c12` [Example 14, 1-cyclopropyl-8-(4-fluoroisoindoline-6-yl)-9-methyl-4-oxo-4H-quinolizine-3-carboxylic acid] has an MIC [1] of 0.031 µg/mL (≈ 0.0819 µM), an MIC [2] of 0.5 µg/mL (≈ 1.32 µM) and an MIC [3] of 0.031 µg/mL (≈ 0.0819 µM). The MIC [4] was 0.125 µg/mL (≈ 0.33 µM), the MIC [5] was 0.008 µg/mL (≈ 0.0211 µM) and the MIC [6] was 0.016 µg/mL (≈ 0.0423 µM).
`C[C@H]1COc2c(N3CCN(C)CC3)c(F)cc3c(=O)c(C(=O)O)cn1c23` [LVFX, levofloxacin, reference compound] showed an MIC [1] of 0.063 µg/mL (≈ 0.174 µM), an MIC [2] of 0.5 µg/mL (≈ 1.38 µM) and an MIC [3] of 1 µg/mL (≈ 2.77 µM). It also gave an MIC [4] of 4 µg/mL (≈ 11.1 µM), an MIC [5] of 0.25 µg/mL (≈ 0.692 µM) and an MIC [6] of 0.5 µg/mL (≈ 1.38 µM).
